The source of these data is PubChem BioAssay (NCI).

Test systems include MDA-N; OVCAR-4 ovarian; UO-31 renal; KM12 colon; TK-10 renal; NCI-H460 lung; OVCAR-5 ovarian; M14 melanoma; SR leukemia; OVCAR-8 ovarian; NCI-H522 lung; SK-MEL-2 melanoma; A498 renal; 786-0 renal; SW-620 colon; LOX IMVI melanoma; DU-145 prostate; RXF 393 renal; HCT-116 colon; SK-MEL-28 melanoma.
Common to all, as to test: NCI anticancer screen, dose series, 48 h

SMILES strings stand for the structures.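 48-hour exposure; five concentrations; linearly interpolated endpoints. Definition used: TGI = concentration required for complete inhibition of growth.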

For `CCCCCC(=O)Nc1nc[nH]c1C(N)=O`, the TGI with MDA-N, in the experiment with OVCAR-4 ovarian, with UO-31 renal, with KM12 colon, with TK-10 renal and in the experiment on NCI-H460 lung was above 100 µM in each case. The TGI in the experiment with OVCAR-5 ovarian, with M14 melanoma, with SR leukemia, in the experiment on OVCAR-8 ovarian, with NCI-H522 lung and in the experiment on SK-MEL-2 melanoma was above 100 µM each time. The TGI with A498 renal, in the experiment with 786-0 renal, in the experiment on SW-620 colon, in the experiment on LOX IMVI melanoma, in the experiment on DU-145 prostate and in the experiment on RXF 393 renal was above 100 µM in each case. The TGI with HCT-116 colon and with SK-MEL-28 melanoma was above 100 µM each time.
With `Cn1cc(-c2cnc(-c3cn(C)c4ccccc34)cn2)c2ccccc21`, the TGI in the experiment on MDA-N is 3.54 µM; in the experiment with OVCAR-4 ovarian it was above 100 µM; in the experiment with UO-31 renal it was above 65 µM; in the experiment on KM12 colon, 14.8 µM; with TK-10 renal, above 100 µM; in the experiment on NCI-H460 lung it was above 100 µM. The TGI was above 100 µM in the experiment on OVCAR-5 ovarian; 27.7 µM with M14 melanoma; above 100 µM in the experiment with SR leukemia; 44.5 µM in the experiment with OVCAR-8 ovarian; 15.4 µM in the experiment with NCI-H522 lung; above 71.2 µM with SK-MEL-2 melanoma. Moreover, the TGI in the experiment on A498 renal is above 41.4 µM; with 786-0 renal it was 29.9 µM; in the experiment with SW-620 colon, above 38.6 µM; with LOX IMVI melanoma, 35.9 µM; in the experiment on DU-145 prostate, above 58.5 µM; in the experiment on RXF 393 renal, 24.7 µM. For the same compound, the figures for the TGI with HCT-116 colon and in the experiment on SK-MEL-28 melanoma were above 100 µM and above 79.2 µM, respectively.
Regarding `C=CCn1c(C23CC4CC(CC(C4)C2)C3)n[nH]c1=S`, the TGI with MDA-N, in the experiment with OVCAR-4 ovarian, in the experiment with UO-31 renal, in the experiment with KM12 colon, with TK-10 renal and in the experiment with NCI-H460 lung was above 100 µM throughout. The TGI in the experiment with OVCAR-5 ovarian was above 100 µM; with M14 melanoma, above 100 µM; in the experiment with SR leukemia it was 29.3 µM; with OVCAR-8 ovarian, above 100 µM; with NCI-H522 lung, above 100 µM; with SK-MEL-2 melanoma, above 100 µM. Besides, the TGI in the experiment with A498 renal, with 786-0 renal, in the experiment with SW-620 colon, in the experiment with LOX IMVI melanoma, with DU-145 prostate and with RXF 393 renal was above 100 µM throughout. The TGI with HCT-116 colon and in the experiment with SK-MEL-28 melanoma was above 100 µM each time.
Consider `CCOC(=O)CC1(O)CCCCC1(Sc1ccc(C)cc1)Sc1ccc(C)cc1` (stereo not given), for which the TGI in the experiment on MDA-N, in the experiment on OVCAR-4 ovarian, with UO-31 renal, in the experiment on KM12 colon, in the experiment with TK-10 renal and in the experiment on NCI-H460 lung was above 100 µM throughout. Moreover, the TGI in the experiment with OVCAR-5 ovarian is above 100 µM; with M14 melanoma it was above 100 µM; in the experiment on SR leukemia, above 100 µM; in the experiment on OVCAR-8 ovarian, above 100 µM; with NCI-H522 lung, 51 µM; in the experiment with SK-MEL-2 melanoma, 65.9 µM. For the same compound, the TGI in the experiment on A498 renal, with 786-0 renal, in the experiment on SW-620 colon, with LOX IMVI melanoma, with DU-145 prostate and in the experiment on RXF 393 renal was above 100 µM throughout. Moreover, the TGI in the experiment with HCT-116 colon and in the experiment on SK-MEL-28 melanoma was above 100 µM in each case.
As to `N/C(=N\N=C\c1c[nH]c2cc(C(F)(F)F)ccc2c1=O)NO`, the TGI with MDA-N, in the experiment with OVCAR-4 ovarian, with UO-31 renal, with KM12 colon, in the experiment with TK-10 renal and with NCI-H460 lung was above 10 µM each time. In addition, the TGI in the experiment with OVCAR-5 ovarian, with M14 melanoma, in the experiment on SR leukemia, with OVCAR-8 ovarian, in the experiment with NCI-H522 lung and with SK-MEL-2 melanoma was above 10 µM throughout. The TGI in the experiment on A498 renal, in the experiment on 786-0 renal, with SW-620 colon, with LOX IMVI melanoma, in the experiment with DU-145 prostate and in the experiment on RXF 393 renal was above 10 µM each time. Moreover, the TGI in the experiment on HCT-116 colon and with SK-MEL-28 melanoma was above 10 µM each time.
`O=C1/C(=C/c2ccc(Cl)cc2)N=C(c2ccccc2)N1c1nc2ccccc2s1`: the TGI with MDA-N, with OVCAR-4 ovarian, with UO-31 renal, in the experiment with KM12 colon, in the experiment on TK-10 renal and in the experiment with NCI-H460 lung was above 100 µM throughout. The TGI is above 100 µM in the experiment on OVCAR-5 ovarian; above 100 µM in the experiment on M14 melanoma; above 100 µM in the experiment on SR leukemia; above 100 µM in the experiment on OVCAR-8 ovarian; 75.1 µM in the experiment with NCI-H522 lung; 88.2 µM in the experiment with SK-MEL-2 melanoma. For the same compound, the TGI in the experiment on A498 renal was 97.1 µM; with 786-0 renal, above 100 µM; in the experiment on SW-620 colon, above 100 µM; in the experiment with LOX IMVI melanoma it was above 100 µM; with DU-145 prostate, above 100 µM; in the experiment with RXF 393 renal, above 100 µM. The TGI with HCT-116 colon and in the experiment on SK-MEL-28 melanoma was above 100 µM throughout.
Consider `CSC1=NC(C(N)=O)C(N)N1C` (stereo not given), for which the TGI with MDA-N, in the experiment on OVCAR-4 ovarian, in the experiment with UO-31 renal, in the experiment on KM12 colon, in the experiment with TK-10 renal and with NCI-H460 lung was above 100 µM throughout. In addition, the TGI with OVCAR-5 ovarian, in the experiment on M14 melanoma, in the experiment with SR leukemia, in the experiment with OVCAR-8 ovarian, in the experiment with NCI-H522 lung and in the experiment with SK-MEL-2 melanoma was above 100 µM throughout. The TGI in the experiment on A498 renal, with 786-0 renal, with SW-620 colon, in the experiment with LOX IMVI melanoma, in the experiment on DU-145 prostate and with RXF 393 renal was above 100 µM in each case. The TGI in the experiment on HCT-116 colon and in the experiment with SK-MEL-28 melanoma was above 100 µM each time.
In the case of `CN(C)c1nc2n(CCO)c(-c3ccccc3)c(-c3ccccc3)nc-2c(=O)n1`, the TGI with MDA-N, in the experiment with OVCAR-4 ovarian, in the experiment with UO-31 renal, with KM12 colon, with TK-10 renal and in the experiment with NCI-H460 lung was above 100 µM throughout. Further, the TGI with OVCAR-5 ovarian, in the experiment with M14 melanoma, in the experiment on SR leukemia, with OVCAR-8 ovarian, in the experiment on NCI-H522 lung and in the experiment on SK-MEL-2 melanoma was above 100 µM each time. Further, the TGI in the experiment with A498 renal, in the experiment on 786-0 renal, with SW-620 colon, in the experiment with LOX IMVI melanoma, with DU-145 prostate and in the experiment with RXF 393 renal was above 100 µM each time. Moreover, the TGI with HCT-116 colon and in the experiment with SK-MEL-28 melanoma was above 100 µM throughout.
In the case of `C=CCC(CC=O)(C(=O)OCC)C(=O)OCC`, the TGI in the experiment on MDA-N, with OVCAR-4 ovarian, in the experiment with UO-31 renal, with KM12 colon, with TK-10 renal and in the experiment with NCI-H460 lung was above 100 µM in each case. Moreover, the TGI in the experiment on OVCAR-5 ovarian, with M14 melanoma, in the experiment on SR leukemia, in the experiment on OVCAR-8 ovarian, in the experiment on NCI-H522 lung and in the experiment with SK-MEL-2 melanoma was above 100 µM throughout. Also, the TGI in the experiment with A498 renal, in the experiment with 786-0 renal, in the experiment on SW-620 colon, in the experiment with LOX IMVI melanoma, in the experiment with DU-145 prostate and in the experiment on RXF 393 renal was above 100 µM in each case. Moreover, the TGI with HCT-116 colon and with SK-MEL-28 melanoma was above 100 µM throughout.
Regarding `CCC1(CCSC(=N)N)C(=O)NC(=O)NC1=O`, the TGI in the experiment with MDA-N, in the experiment on OVCAR-4 ovarian, with UO-31 renal, in the experiment on KM12 colon, in the experiment on TK-10 renal and with NCI-H460 lung was above 100 µM each time. In addition, the TGI in the experiment on OVCAR-5 ovarian, with M14 melanoma, with SR leukemia, with OVCAR-8 ovarian, in the experiment on NCI-H522 lung and in the experiment on SK-MEL-2 melanoma was above 100 µM throughout. Moreover, the TGI in the experiment on A498 renal, in the experiment with 786-0 renal, in the experiment on SW-620 colon, in the experiment with LOX IMVI melanoma, in the experiment on DU-145 prostate and with RXF 393 renal was above 100 µM throughout. For the same compound, the TGI with HCT-116 colon and in the experiment with SK-MEL-28 melanoma was above 100 µM throughout.
